Values of other authors as cited in patent publication US7695734B2, “Extended release tablet formulation containing pramipexole or a pharmaceutically acceptable salt thereof” (Boehringer Ingelheim International GmbH, priority 2004, dated 2010).

Tests used:
[1] = light
dopamine D2 receptor = dopamine D2 receptor (Homo sapiens, UniProt P14416)
dopamine D2 receptor, sequence (P14416 whole entry, species assumed): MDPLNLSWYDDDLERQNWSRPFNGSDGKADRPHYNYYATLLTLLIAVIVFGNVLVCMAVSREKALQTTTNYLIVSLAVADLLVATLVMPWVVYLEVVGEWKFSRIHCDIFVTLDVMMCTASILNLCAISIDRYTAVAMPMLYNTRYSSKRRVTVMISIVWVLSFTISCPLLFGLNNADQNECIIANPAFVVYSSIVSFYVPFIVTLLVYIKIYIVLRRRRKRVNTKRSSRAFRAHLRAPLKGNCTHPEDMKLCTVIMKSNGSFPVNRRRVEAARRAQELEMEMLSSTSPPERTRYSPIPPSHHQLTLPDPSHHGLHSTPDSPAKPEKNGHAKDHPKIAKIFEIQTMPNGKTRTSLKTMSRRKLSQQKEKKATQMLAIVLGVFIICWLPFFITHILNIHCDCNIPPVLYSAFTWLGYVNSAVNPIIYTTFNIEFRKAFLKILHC

For `CCCN[C@H]1CCc2nc(N)sc2C1` [Pramipexole, (S)-2-amino-4,5,6,7-tetrahydro-6-(propylamino)benzothiazole], the stability in solution [1] is given as “light sensitive”, the agonist activity (dopamine D2 receptor; dopamine D2 receptor) is given as “full agonist” and the receptor selectivity (dopamine D2 receptor; dopamine receptors) is given as “receptor selectivity for the dopamine D2 family of dopamine receptors”.
